Assay results published in patent US4670460A, “Inhibiting lipoxygenase with pyrazolone derivatives” (Bayer Aktiengesellschaft, priority 1983, dated 1987).

Assays:
lipoxygenase [1] = biological target: T1, lipoxygenase (Homo sapiens, UniProt P09917); experiment: Inhibition of LTB4 biosynthesis (lipoxygenase-inhibiting action) in human PMN leucocytes stimulated with ionophor A 23187; assay type: cell-based; conditions: 0.25 h; for inhibition at 10 µg/mL: concentration 10^-5 g/ml; for inhibition at 1 µg/mL: concentration 10^-6 g/ml
T1 construct: endogenous in cells; host or cells: human PMN leucocytes isolated from heparinized blood
T1 sequence (P09917 1-674): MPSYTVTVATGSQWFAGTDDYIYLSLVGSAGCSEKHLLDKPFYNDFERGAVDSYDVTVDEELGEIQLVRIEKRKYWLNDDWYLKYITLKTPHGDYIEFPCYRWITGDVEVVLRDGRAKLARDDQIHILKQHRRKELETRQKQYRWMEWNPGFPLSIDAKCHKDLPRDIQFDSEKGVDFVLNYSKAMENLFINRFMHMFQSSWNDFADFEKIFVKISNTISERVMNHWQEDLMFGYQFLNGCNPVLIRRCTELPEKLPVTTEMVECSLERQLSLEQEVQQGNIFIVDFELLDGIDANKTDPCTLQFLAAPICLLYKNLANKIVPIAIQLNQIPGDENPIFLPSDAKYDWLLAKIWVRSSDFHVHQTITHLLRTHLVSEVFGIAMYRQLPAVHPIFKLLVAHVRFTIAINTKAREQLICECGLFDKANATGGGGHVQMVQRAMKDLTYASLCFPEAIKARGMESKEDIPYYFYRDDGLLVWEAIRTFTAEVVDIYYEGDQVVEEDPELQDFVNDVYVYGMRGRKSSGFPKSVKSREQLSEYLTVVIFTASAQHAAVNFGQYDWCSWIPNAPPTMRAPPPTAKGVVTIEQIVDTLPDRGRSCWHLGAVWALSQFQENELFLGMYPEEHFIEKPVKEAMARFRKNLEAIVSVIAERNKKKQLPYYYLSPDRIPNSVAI
Method: The human PMN leucocytes (>95%) used in the present example were obtained from heparinized complete blood by dextran sedimentation and subsequent density gradient separation (Ficoll-Paque) (compare A. Boyum, Scand. J. Immunol., 5, Suppl. 5, 9, 1976).
2×10^7 cells/ml were suspended in Dulbecco phosphate buffer containing Ca^2+ and were incubated with radioactively labelled arachidonic acid and the calcium ionophor A 23187 in the presence or absence of lipoxygenase inhibitor. After 15 minutes, the labelled lipoxygenase products were extracted from the acidified incubation medium and were separated by thin layer chromatography using a mobile phase mixture suitable for the leukotrienes (5-HETE-LTB4) (compare B. Jakschik et al., Biochem. Biophys. Res. Commun., 102, 624, 1981).
The distribution of the activity amongst the various metabolites was measured by a thin layer scanner. It is a measure of the lipoxygenase-inhibiting action of a test substance at a certain concentration.
The lipoxygenase metabolites were also additionally determined independently by means of high pressure liquid chromatography. This method enables the endogenous arachidonic acid metabolism to be studied with the aid of UV detection of the leukotrienes. In this method, the cells were treated as described above, with the exception that no radioactively labelled arachidonic acid was added exogenously. The high pressure liquid chromatography was carried out on Lichrosorb RP-18 (5 μm) columns. The mobile phase was methanol/water/glacial acetic acid 69/31/0.01. The flow rate was 1 ml/minute. Leukotriene B4 was determined at 280 nm and the HETE derivatives were determined at 232 nm, in each case by means of UV absorption.

[2] = Antithrombotic action (prophylaxis of thromboses); assay type: in vivo; conditions: dose increased 100 times in comparison with nafazatrom
leucocytes = experiment: Leucocyte stickiness, hamster cheek pouch venule; assay type: in vivo, Syrian golden hamsters
Method: The number of leucocytes which pass a certain section of a vessel serves as a simple model for measuring the stickiness of leucocytes (Bray, M. A. et al., Prostaglandins 22, 213 (1981)). The number of leucocytes counted will be greater, the lower the stickiness of the cells.
The pyrazolone derivatives described below were investigated in this model.
Male Syrian golden hamsters (80-100 g) were anaesthetized with Nembutal (i.p.; 60 mg/kg). After insertion of a PE 10 catheter into the a. femoralis, the animal was laid on a Duling dissecting platform (MVR 5, 423 (1973)) and the right cheek pouch was withdrawn by inserting a Q-Tip. It was carefully drawn into the envisaged part of the platform, stretched and fixed.
From the start of the dissection, 5 ml/minute of Superfusat flowedover the prepared cheek pouch. The temperature of the solution was 36° C. While treating the vessels with care, the upper layer tissue was separated longitudinally and folded back to the side. Under about 200-fold magnification, an area of about 1 cm^2 of connective tissue was carefully exposed. The animal was placed on the object stand of a microscope, together with the dissecting platform. A thermocouple was inserted into the left cheek pouch. The body temperature of the animal was thus monitored and kept at 36±0.3° C. with the aid of an IR lamp (250 watt).
The leucocyte stickiness was measured at about 500-fold magnification. A venule (30-40 μm .phi.) was selected in the exposed area. The number of leucocytes per unit time (minutes) which migrate past a certain section of this vessel were counted.
Intra-arterial administration of the pyrazolone derivatives in 1% strength aqueous Tylose suspension led to the following results: […]

[3] = system: 15-hydroxyprostaglandin dehydrogenase; conditions: Wong and McGiff 1982; cited from earlier work
lipoxygenase [4] = conditions: Busse et al. 1982; cited from earlier work
[5] = system: endogenous prostacyclin (PGI2) from the vascular endothelium; conditions: Vermylen 1979, Chamone 1981, McIntyre and Salzman 1981; cited from earlier work

Compound	inhibition at 10 µg/mL (lipoxygenase [1]) [%]	inhibition at 1 µg/mL (lipoxygenase [1]) [%]	also measured
CCC1=NN(CCOc2ccc3c(Br)cccc3c2)C(=O)C1C (stereo not drawn)	100	100	
CCCCC1C(=O)N(CCOc2ccc3c(Br)cccc3c2)N=C1C (stereo not drawn)	100	68	
Cc1cc(OC(=O)c2ccc3ccccc3c2)n(C(C)c2ccc(Cl)c(Cl)c2)n1 (stereo not drawn)	46		
O=C1CC(C2CCCCC2)=NN1CCCc1ccccc1	100	71	
CC1=NN(C(C)c2ccc(Cl)c(Cl)c2)C(=O)C1Cc1ccccc1 (stereo not drawn)	100		
CC1=NN(CCOc2ccc3ccccc3c2)C(=O)C1C1C(=O)N(CCOc2ccc3ccccc3c2)N=C1C (stereo not drawn)	50		
Cc1cc(OC(=O)c2ccc(Cl)cc2)n(C(C)c2ccc(Cl)c(Cl)c2)n1 (stereo not drawn)	80		
CC1=NN(CCOc2ccc3ccccc3c2)C(=O)C1C (stereo not drawn) [3,4-dimethyl derivative]			Effect in the prophylaxis of thromboses [2]: no effect can be detected
O=C1CC(Cc2ccccc2)=NN1CCOc1ccc2ccccc2c1 [Compound 3-benzyl]			Effect in the prophylaxis of thromboses [2]: no effect can be detected
CC(C)C1=NN(CCOc2ccc3ccccc3c2)C(=O)C1 [Compound 3-isopropyl]			Effect in the prophylaxis of thromboses [2]: no effect can be detected
CCCC1=NN(CCOc2ccc3ccccc3c2)C(=O)C1 [Compound 3-n-propyl]			Effect in the prophylaxis of thromboses [2]: no effect can be detected
CC1=NN(CCOc2ccccc2-c2ccccc2)C(=O)C1 [Compound 4]			Duration of action (leucocytes; dose 0.1 mg/kg intra-arterial): 40 min; Increase in Leucocyte number (%) (leucocytes; dose 0.1 mg/kg intra-arterial): 35%
CCC1C(=O)N(CCOc2ccc3c(Br)cccc3c2)N=C1C (stereo not drawn) [Compound 5]			Duration of action (leucocytes; dose 1 mg/kg intra-arterial): 30 to 50 min; Increase in Leucocyte number (%) (leucocytes; dose 1 mg/kg intra-arterial): 200%
CC1=NN(CCc2cccc3ccccc23)C(=O)C1 [Compound 6]			Duration of action (leucocytes; dose 1 mg/kg intra-arterial): 20 to 30 min; Increase in Leucocyte number (%) (leucocytes; dose 1 mg/kg intra-arterial): 30%
CCC1C(=O)N(CCOc2ccc3c(Br)cccc3c2)N=C1C (stereo not drawn) [drawing 20]	100	100	
CC1=NN(CCOc2ccc3ccccc3c2)C(=O)C1 [nafazatrom, 3-methyl-1-[2-(2-naphthyloxy)-ethyl]-2-pyrazolin-5-one]			Blockade of 15-hydroxyprostaglandin dehydrogenase, the PGI2-degrading enzyme [3]: blocks; Inhibition of lipoxygenase activity (lipoxygenase [4]): inhibits lipoxygenase activity; Stimulation of endogenous prostacyclin (PGI2) from the vascular endothelium [5]: can act as a stimulator

Further lines, with some results ahead:

inhibition at 10 µg/mL (lipoxygenase [1]) [%]	inhibition at 1 µg/mL (lipoxygenase [1]) [%]	Compound	also measured
100	100	CC(C)CC1=NN(CCOc2ccc3ccccc3c2)C(=O)C1	
100	62	CC1=NN(CCOc2cccc3ccccc23)C(=O)C1	
100	93	CCCCCCC1C(=O)N(CCOc2ccc3ccccc3c2)N=C1C (stereo not drawn)	
100	81	O=C1CC(c2ccccc2)=NN1CCCc1ccccc1	
100	43	CC1=NN(CCOc2ccc(Cl)c(C)c2)C(=O)C1	
80		O=C1CC(CO)=NN1CCOc1ccc2ccccc2c1	
82	36	CC(=O)OCC1=NN(CCOc2ccc3ccccc3c2)C(=O)C1	
93	40	COCC1=NN(CCOc2ccc3ccccc3c2)C(=O)C1	
100	75	CC1=NN(CCOc2ccccc2-c2ccccc2)C(=O)C1 [drawing 18]	
100	83	CC1=NN(CCOc2ccc3ccccc3c2)C(=O)C1C (stereo not drawn) [drawing 22]	
100	58	CC1=NN(CCc2cccc3ccccc23)C(=O)C1 [drawing 28]	
100	58	CC1=NN(CCOc2ccc3ccccc3c2)C(=O)C1 [drawing 34, reference compound]	
